The values that follow come from patent US7605272B2, “IGF-1R inhibitor” (Kyowa Hakko Kirin Co., Ltd., priority 2005, dated 2009).

One assay addresses T1, IGF-1R (Homo sapiens, UniProt P08069).
T1 construct: purchased Upstate Co. 14-465
The assay is described as follows: IGF-1R inhibitory activity (kinase reaction, time-resolved fluoroimmunoassay). It counts as biochemical. The conditions noted are these: IGF-1R active recombinant enzyme, test compound 10 μmol/L. The gist of the method:
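Compounds were tested at a single 10 μmol/L concentration. Each was incubated with recombinant IGF-1R (200 μg/L), 10 mmol/L ATP, MgCl2/MnCl2 and Na3VO4 (pH 7.5) on immobilized poly(Glu-Tyr) peptide for 30 min at 24° C. Eu-anti-phosphotyrosine time-resolved fluorescence (340/615 nm) gave relative activity against no-compound and no-enzyme wells, reported as % inhibition.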

For a further assay, the system named is KMS-11. Description: Cytostatic activity on human multiple myeloma cell line KMS-11 (WST-1). Type of assay: cell-based. The conditions noted are these: for inhibition at 10 µM / inhibition at 1 µM: Homo sapiens, KMS-11, 72 h; for inhibition at 10 µM: 10 μmol/L, read-out: cytostatic rate (%) KMS-11 (10 μmol/L); for inhibition at 1 µM: read-out: cytostatic rate (%) KMS-11 (1 μmol/L). The method, boiled down:
(§1)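 Cells pre-cultured 24 h at 37 °C, 5% CO2, then exposed 72 h to compound at final 1 or 10 μmol/L (0.1% DMSO). WST-1 added for 2 h, absorbance at 450 nm (ref 690 nm). Cytostatic rate = 100 minus relative growth, with DMSO control as 100% and blank as 0%.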
Background: Formazan colour is commonly taken as a measure of viable cells.

Another assay deals with NCI-H929. Description: Cytostatic activity on human multiple myeloma cell line NCI-H929 (WST-1). Type of assay: cell-based. The settings on record: for inhibition at 10 µM / inhibition at 1 µM: Homo sapiens, NCI-H929, 72 h; for inhibition at 10 µM: 10 μmol/L, read-out: cytostatic rate (%) H929 (10 μmol/L); for inhibition at 1 µM: read-out: cytostatic rate (%) H929 (1 μmol/L). The gist of the method: as §1

T1 sequence (P08069 959-1367 limits assumed): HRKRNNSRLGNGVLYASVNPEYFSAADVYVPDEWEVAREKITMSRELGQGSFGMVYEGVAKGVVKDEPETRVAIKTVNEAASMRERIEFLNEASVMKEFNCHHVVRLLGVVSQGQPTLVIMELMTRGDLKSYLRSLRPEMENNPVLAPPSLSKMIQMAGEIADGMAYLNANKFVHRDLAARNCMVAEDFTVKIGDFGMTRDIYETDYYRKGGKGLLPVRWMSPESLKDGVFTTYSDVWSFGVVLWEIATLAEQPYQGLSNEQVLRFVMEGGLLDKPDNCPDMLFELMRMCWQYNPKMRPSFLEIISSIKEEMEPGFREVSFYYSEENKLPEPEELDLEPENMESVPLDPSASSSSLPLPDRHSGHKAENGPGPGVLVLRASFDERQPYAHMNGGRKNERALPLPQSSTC

On to `O=C(Nc1ccccc1/C=C/c1n[nH]c2ccccc12)C1CCC1` [Compound 44, (E)-N-{2-[2-(1H-indazol-3-yl)vinyl]phenyl}cyclobutanecarboxamide], for which the inhibition at 10 µM at IGF-1R was found to be 98%; in the assay on KMS-11 (72 hours), 113%; with NCI-H929 (72 hours) it was 115%.
With `O=C1c2ccccc2C(=O)N1c1cc2c(cc1/C=C/c1n[nH]c3ccccc13)OCO2` [Compound 151, (E)-N-2-{6-[2-(1H-indazol-3-yl)vinyl]benzo[1,3]dioxol-5-yl}isoindole-1,3-dione], the values for the inhibition at 10 µM at IGF-1R, with KMS-11 (72 hours) and in the assay on NCI-H929 (72 hours) were 100%, 83.2% and 104%, respectively.
Consider `COc1c(OCCCN2CC[C@@H](N)C2)ccc(/C=C/c2n[nH]c3ccccc23)c1NC(=O)c1sccc1C` [Compound 346, (R)-(E)-N-{3-[3-(3-aminopyrrolidin-1-yl)propoxy]-6-[2-(1H-indazol-3-yl)vinyl]-2-methoxyphenyl}-3-methylthiophene-2-carboxamide], for which the inhibition at 10 µM at IGF-1R was found to be 114%. For the same compound, the inhibition at 1 µM with KMS-11 (1 μmol/L, 72 hours) came out at 97.2%; in the assay with NCI-H929 (1 μmol/L, 72 hours), 114%.
With `COCCN(C)Cc1ccc(/C=C/c2n[nH]c3ccccc23)c(NC(=O)c2sccc2C)c1` [Compound 252, (E)-N-{2-[2-(1H-indazol-3-yl)vinyl]-5-[N-(2-methoxyethyl)methylaminomethyl]phenyl}-3-methylthiophene-2-carboxamide], the inhibition at 10 µM on IGF-1R is 101%. Besides, the inhibition at 1 µM stood at 113% with KMS-11 (1 μmol/L, 72 hours) and 120% in the assay on NCI-H929 (1 μmol/L, 72 hours).
In the case of `Cc1ccsc1C(=O)Nc1cc(CN2CCC(N(C)C)C2)ccc1/C=C/c1n[nH]c2ccccc12` (stereo not drawn) [Compound 294, (E)-N-{5-[3-(dimethylamino)pyrrolidin-1-ylmethyl]-2-[2-(1H-indazol-3-yl)vinyl]phenyl}-3-methylthiophene-2-carboxamide], the inhibition at 10 µM at IGF-1R came to 98.2%. For the same compound, the inhibition at 1 µM was 116% in the assay with KMS-11 (1 μmol/L, 72 hours) and 118% with NCI-H929 (1 μmol/L, 72 hours).
For the compound `COc1c(OCCN2CCC(O)CC2)ccc(/C=C/c2n[nH]c3ccccc23)c1NC(=O)c1sccc1C` [Compound 349, (E)-{3-[2-(4-hydroxypiperidin-1-yl)ethoxy]-6-[2-(1H-indazol-3-yl)vinyl]-2-methoxyphenyl}-3-methylthiophene-2-carboxamide], the “inhibitory activity (%) at 10 μmol/L” value at IGF-1R amounted to 101.9%. Also, the “cytostatic rate (%) KMS-11 (1 μmol/L)” value with KMS-11 (1 μmol/L, 72 hours) worked out at 117.2%. In the assay on NCI-H929 (1 μmol/L, 72 hours), the “cytostatic rate (%) H929 (1 μmol/L)” value was determined as 116.3%.
As for `Cc1ccsc1C(=O)Nc1cc(CN2CCN(CCN3CCOCC3)CC2)ccc1/C=C/c1n[nH]c2ccccc12` [Compound 319], the “inhibitory activity (%) at 10 μmol/L” value at IGF-1R amounted to 100.4%. Besides, the “cytostatic rate (%) KMS-11 (1 μmol/L)” value with KMS-11 (KMS-11 cells, test compound 1 μmol/L, WST-1) was 102.6%. Also, the “cytostatic rate (%) H929 (1 μmol/L)” value in the assay with NCI-H929 (NCI-H929 cells, test compound 1 μmol/L, WST-1) turned out to be 122.4%.
In the case of `Cn1cccc1CC(=O)Nc1ccccc1/C=C/c1n[nH]c2ccccc12` [Compound 73, (E)-N-{2-[2-(1H-indazol-3-yl)vinyl]phenyl}-2-(1-methyl-1H-pyrrole-2-yl)acetamide], the inhibition at 10 µM on IGF-1R stood at 88%; with KMS-11 (72 hours), 90.4%; in the assay with NCI-H929 (72 hours), 80%.
Consider `CNC1CCN(C(=O)c2ccc(/C=C/c3n[nH]c4ccccc34)c(NC(=O)c3sccc3C)c2)C1` (stereo not drawn) [Compound 283, (E)-N-{2-[2-(1H-indazol-3-yl)vinyl]-5-[3-(methylamino)pyrrolidin-1-ylcarbonyl]phenyl}-3-methylthiophene-2-carboxamide], for which the inhibition at 10 µM on IGF-1R was determined as 101%. Moreover, the inhibition at 1 µM in the assay on KMS-11 (1 μmol/L, 72 hours) was 116%; in the assay on NCI-H929 (1 μmol/L, 72 hours) it was 128%.
The matching figures for `CCN(CC)CCOc1ccc(NC(=O)c2sccc2C)c(/C=C/c2n[nH]c3ccccc23)c1` [Compound 237, (E)-N-{2-[2-(1H-indazol-3-yl)vinyl]-4-(2-diethylaminoethoxy)phenyl}-3-methylthiophene-2-carboxamide]: 100%, 144% and 120%.
As for `O=C(Nc1nccs1)c1ccccc1/C=C/c1n[nH]c2ccccc12` [Compound 138, (E)-2-[2-(1H-indazol-3-yl)vinyl]-N-(thiazol-2-yl)benzamide], the inhibition at 10 µM at IGF-1R was determined as 97.2%; in the assay with KMS-11 (72 hours), 101%; with NCI-H929 (72 hours), 114%.
On to `O=C(Nc1ccccc1/C=C/c1n[nH]c2ccccc12)c1ccc([N+](=O)[O-])cc1` [Compound 65, (E)-N-{2-[2-(1H-indazol-3-yl)vinyl]phenyl}-4-nitrobenzamide], for which the inhibition at 10 µM on IGF-1R was determined as 97.9%; in the assay on KMS-11 (72 hours), 120%; with NCI-H929 (72 hours) it was 109%.
Turning to `Cn1ccnc1C(=O)Nc1ccccc1/C=C/c1n[nH]c2ccccc12` [Compound 352, (E)-N-{2-[2-(1H-indazol-3-yl)vinyl]phenyl}-1-methyl-1H-imidazole-2-carboxamide], at IGF-1R, the inhibition at 10 µM was determined as 103%. For the same compound, the inhibition at 1 µM stood at 84.8% with KMS-11 (1 μmol/L, 72 hours) and 108% in the assay on NCI-H929 (1 μmol/L, 72 hours).
The matching figures for `O=C(Nc1cc(C(=O)N2CCN(CCO)CC2)ccc1/C=C/c1n[nH]c2ccccc12)c1cccs1` [Compound 289, (E)-N-{5-[4-(2-hydroxyethyl)piperazin-1-ylcarbonyl]-2-[2-(1H-indazol-3-yl)vinyl]phenyl}thiophene-2-carboxamide]: 93.5%, 73.6% and 102%.
Turning to `O=C(Cc1ccccc1)Nc1ccccc1/C=C/c1n[nH]c2ccccc12` [Compound 15, (E)-N-{2-[2-(1H-indazol-3-yl)vinyl]phenyl}-2-phenylacetamide], the inhibition at 10 µM stood at 55.4% at IGF-1R, 95.1% in the assay with KMS-11 (72 hours) and 93.6% with NCI-H929 (72 hours).
On the same counts, the results for `O=C(Nc1ccccc1/C=C/c1n[nH]c2ccccc12)c1cccc([N+](=O)[O-])c1` [Compound 64, (E)-N-{2-[2-(1H-indazol-3-yl)vinyl]phenyl}-3-nitrobenzamide] are 97%, 124% and 108%.
Regarding `COCCN(CCN1CCOCC1)c1ccc(NC(=O)c2sccc2C)c(/C=C/c2n[nH]c3ccccc23)c1` [Compound 238, (E)-N-{2-[2-(1H-indazol-3-yl)vinyl]-4-[N-(2-methoxyethyl)-2-(morpholin-4-yl)ethylamino]phenyl}-3-methylthiophene-2-carboxamide], the inhibition at 10 µM on IGF-1R stood at 97.1%. Further, the inhibition at 1 µM in the assay on KMS-11 (1 μmol/L, 72 hours) is 132%; in the assay on NCI-H929 (1 μmol/L, 72 hours), 126%.
As to `Nc1ccc(C(=O)Nc2ccccc2/C=C/c2n[nH]c3ccccc23)cc1` [Compound 70, (E)-4-amino-N-{2-[2-(1H-indazol-3-yl)vinyl]phenyl}benzamide], the inhibition at 10 µM on IGF-1R is 101%; in the assay on KMS-11 (72 hours), 113%; in the assay on NCI-H929 (72 hours), 115%.
In the case of `O=C(Nc1ccccc1/C=C/c1n[nH]c2ccccc12)c1ccno1` [Compound 37, (E)-N-{2-[2-(1H-indazol-3-yl)vinyl]phenyl}isoxazole-5-carboxamide], the inhibition at 10 µM on IGF-1R amounted to 99.1%; in the assay with KMS-11 (72 hours) it was 112%; with NCI-H929 (72 hours), 112%.
In the case of `Cc1c(C(=O)Nc2ccccc2/C=C/c2n[nH]c3ccccc23)sc2ccc(Cl)cc12` [Compound 58, (E)-5-chloro-N-{2-[2-(1H-indazol-3-yl)vinyl]phenyl}-3-methylbenzo[b]thiophene-2-carboxamide], the figures for the inhibition at 10 µM at IGF-1R, in the assay on KMS-11 (72 hours) and in the assay on NCI-H929 (72 hours) were 86%, 119% and 69.8%, respectively.
